The values below come from patent US20110207916A1, “Dual Affinity Polypeptides for Purification” (priority 2007, published 2011).

Assay [1] deals with T1, AMG-Z (AMG(1-526aa)::Z, Aspergillus niger glucoamylase fused to Z domain of Staphylococcus aureus protein A, SEQ ID NO 25) (Aspergillus niger, UniProt P69328).
T1 construct: made in house; host or cells: Aspergillus oryzae (transformant JaL1171 of host BECh2)
Put plainly: Biacore SPR, binding of DAP AMG-Z to acarbose ligand (biotin-acarbose on SA chip). For orientation: SPR reads the build-up and loss of mass on a sensor chip optically.
Excerpt: Immobilisation occurred by direct covalent coupling to the surface (using the Amine Coupling Kit, BiaCore, GE Health Care) or via a capturing molecule as prescribed by the manufacturer (BiaCore, GE Health Care). The amount of coupled target was quantified and expressed in Refractive Units (RU). […]

Assay [2] concerns VhhRR6(R2)-Z + IgG (variable region of Llama single chain antibody against RR6 fused to Z domain of Staphylococcus aureus protein A, SEQ ID NO 28, with IgG …). Put plainly: Biacore SPR, binding of DAP VhhRR6(R2)-Z to Reactive Red 6 ligand in the presence of IgG. The note with it: Table 1 footnote b; VhhRR6(R2)-Z mixed with IgG before loading to the Biacore. The source says:
The commercialised surface plasmon resonance (SPR) technology for real time monitoring biomolecular binding event is used to measure the binding affinities for the prepared DAP candidates. The general principle of this technology is that a SPR sensor chip measures changes in refractive index, and the changes in refractive index correlate to changes in mass in the aqueous layer close to the sensor surface. When target molecules in solution bind to ligands, immobilised on the sensor surface, the mass increases, and when they dissociate from the ligands the mass decreases. This principle facilitates a continuous, real time monitoring of the association and dissociation of interacting molecules. The graphical presentation of the relationship provides quantitative information in real time on the binding specificity, active concentration of molecule in a sample, reaction kinetics and affinity. […]
(§1) The DAP candidates were analysed for binding to the capturing ligand sensor chip and the target biomolecule sensor chip respectively. […]
Immobilisation occurred by direct covalent coupling to the surface (using the Amine Coupling Kit, BiaCore, GE Health Care) or via a capturing molecule as prescribed by the manufacturer (BiaCore, GE Health Care). The amount of coupled target was quantified and expressed in […] (RU). […]

For assay [3], the system named is VhhRR6(R2)-Z (variable region of Llama single chain antibody against RR6 fused to Z domain of Staphylococcus aureus protein A, SEQ ID NO 28). The experiment in a line: Biacore SPR, binding of DAP VhhRR6(R2)-Z to Reactive Red 6 ligand (biotin-Reactive Red 6 on SA chip). The note with it: Table 1 (summary, rounded).
Excerpt: The commercialised surface plasmon resonance (SPR) technology for real time monitoring biomolecular binding event is used to measure the binding affinities for the prepared DAP candidates. The general principle of this technology is that a SPR sensor chip measures changes in refractive index, and the changes in refractive index correlate to changes in mass in the aqueous layer close to the sensor surface. When target molecules in solution bind to ligands, immobilised on the sensor surface, the mass increases, and when they dissociate from the ligands the mass decreases. This principle facilitates a continuous, real time monitoring of the association and dissociation of interacting molecules. The graphical presentation of the relationship provides quantitative information in real time on the binding specificity, active concentration of molecule in a sample, reaction kinetics and affinity.
In order to evaluate the binding affinities for both of the binding affinities present in the DAP either IgG or the capturing ligand had to be immobilized onto the sensor chip. For IgG rabbit anti-Mannanase was used and for the ligand the chip was coated with streptavidin and the ligand was then immobilized via biotin linked to the appropriate ligand.
In order to measure the binding to RR6 and acarbose the following compounds were prepared; biotin-linked acarbose and biotin-linked RR6.
The mixture was stirred at RT for 30 min. […]
as §1
Immobilisation occurred by direct covalent coupling to the surface (using the Amine Coupling Kit, BiaCore, GE Health Care) or via a capturing molecule as prescribed by the manufacturer (BiaCore, GE Health Care). The amount of coupled target was quantified and expressed in Refractive Units (RU).
Interactions were monitored by injecting samples (20 μl/min) over the prepared sensor surface of the chip. Unless stated otherwise, the binding was assessed in 10 mM sodium acetatbuffer pH 5.0 at room temperature. […]

T1 sequence (P69328 25-526, added parts left off): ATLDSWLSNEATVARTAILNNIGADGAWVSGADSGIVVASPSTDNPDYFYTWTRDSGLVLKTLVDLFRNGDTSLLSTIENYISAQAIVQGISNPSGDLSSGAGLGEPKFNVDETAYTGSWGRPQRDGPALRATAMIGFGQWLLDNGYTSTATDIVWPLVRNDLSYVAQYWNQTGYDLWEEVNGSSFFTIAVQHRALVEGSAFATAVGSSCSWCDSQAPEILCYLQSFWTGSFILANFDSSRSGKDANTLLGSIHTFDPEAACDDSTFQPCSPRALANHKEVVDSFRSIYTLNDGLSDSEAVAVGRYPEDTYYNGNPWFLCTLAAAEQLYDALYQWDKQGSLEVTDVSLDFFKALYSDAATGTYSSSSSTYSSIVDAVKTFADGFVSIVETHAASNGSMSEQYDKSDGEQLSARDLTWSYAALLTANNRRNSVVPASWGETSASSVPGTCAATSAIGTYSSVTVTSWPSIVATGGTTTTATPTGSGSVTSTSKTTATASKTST

In the case of `C[C@H]1O[C@H](O[C@H]2[C@H](O)[C@@H](O)[C@@H](O[C@H]3[C@H](O)[C@@H](O)C(O)O[C@@H]3CO)O[C@@H]2CO)[C@H](O)[C@@H](O)[C@@H]1N[C@H]1C=C(CO)[C@@H](O)[C@H](O)[C@H]1O` (stereo partly shown) [Acarbose], in assay [1] (pH 5, read-out: Ligand binding ka), the kon is 10000 M⁻¹ s⁻¹. For the same compound, in assay [1] (pH 5, read-out: Ligand binding kd), the koff came to 0.002 s⁻¹.

As usually defined, the Kd is the equilibrium constant for the complex coming apart. In the case of Reactive Red 6 [RR6], in assay [2], the Kd worked out at 10 µM and the “binding after injection is stopped” value is reported as “the binding is broken completely as soon as the injection is stopped”. In assay [3], this compound returned a Kd of 0.2 µM, a Ligand binding ka of 20000 M⁻¹ s⁻¹ and a Ligand binding kd of 0.004 s⁻¹.
